From PubChem BioAssay (NCI)
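Test compounds were applied to cells in 96-well plates for 48 hours at 5 doses. The concentration for full growth arrest is given as TGI.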

Experiments:
Test in all cases: NCI tumour cell line growth inhibition, 48 h
786-0 renal = test system: 786-0 renal
A498 renal = test system: A498 renal
A549 NSCLC = test system: A549 NSCLC
ACHN renal = test system: ACHN renal
BT-549 breast = test system: BT-549 breast
CAKI-1 renal = test system: CAKI-1 renal
CCRF-CEM leukemia = test system: CCRF-CEM leukemia
COLO 205 colon = test system: COLO 205 colon
DU-145 prostate = test system: DU-145 prostate
EKVX NSCLC = test system: EKVX NSCLC
HCC-2998 colon = test system: HCC-2998 colon
HCT-116 colon = test system: HCT-116 colon
HCT-15 colon = test system: HCT-15 colon
HL-60(TB) leukemia = test system: HL-60(TB) leukemia
HOP-62 NSCLC = test system: HOP-62 NSCLC
HOP-92 NSCLC = test system: HOP-92 NSCLC
HS 578T breast = test system: HS 578T breast
HT29 colon = test system: HT29 colon
IGROV1 ovarian = test system: IGROV1 ovarian
K-562 leukemia = test system: K-562 leukemia
KM12 colon = test system: KM12 colon
LOX IMVI melanoma = test system: LOX IMVI melanoma
M14 melanoma = test system: M14 melanoma
MCF7 breast = test system: MCF7 breast
MDA-MB-231 breast = test system: MDA-MB-231 breast
MDA-MB-435 = test system: MDA-MB-435
MDA-N = test system: MDA-N
MOLT-4 leukemia = test system: MOLT-4 leukemia
NCI-H226 lung = test system: NCI-H226 lung
NCI-H23 lung = test system: NCI-H23 lung
NCI-H460 lung = test system: NCI-H460 lung
NCI/ADR-RES ovarian = test system: NCI/ADR-RES ovarian
OVCAR-3 ovarian = test system: OVCAR-3 ovarian
OVCAR-4 ovarian = test system: OVCAR-4 ovarian
OVCAR-5 ovarian = test system: OVCAR-5 ovarian
OVCAR-8 ovarian = test system: OVCAR-8 ovarian
PC-3 prostate = test system: PC-3 prostate
RPMI-8226 leukemia = test system: RPMI-8226 leukemia
RXF 393 renal = test system: RXF 393 renal
SF-268 CNS = test system: SF-268 CNS
SF-295 CNS = test system: SF-295 CNS
SF-539 CNS = test system: SF-539 CNS
SK-MEL-2 melanoma = test system: SK-MEL-2 melanoma
SK-MEL-28 melanoma = test system: SK-MEL-28 melanoma
SK-MEL-5 melanoma = test system: SK-MEL-5 melanoma
SK-OV-3 ovarian = test system: SK-OV-3 ovarian
SN12C renal = test system: SN12C renal
SNB-19 CNS = test system: SNB-19 CNS
SNB-75 CNS = test system: SNB-75 CNS
SR leukemia = test system: SR leukemia
SW-620 colon = test system: SW-620 colon
T-47D breast = test system: T-47D breast
TK-10 renal = test system: TK-10 renal
U251 CNS = test system: U251 CNS
UACC-257 melanoma = test system: UACC-257 melanoma
UACC-62 melanoma = test system: UACC-62 melanoma
UO-31 renal = test system: UO-31 renal

Measured: TGI

Cn1c(-c2ccccc2)cc(-c2ccsc2)c1-c1ccsc1
> 100 µM: all assays above
